In patent publication EP0430883A2, “Anthelmintical compounds” (CIBA-GEIGY AG, priority 1989, dated 1991):

Key:
[1] = test system: Nematoden wie Haemonchus contortus und Trichostrongylus colubriformis; assay: Test on sheep infected with nematodes (worm count at necropsy); assay type: in vivo, Schafe; settings: single dose of 20 mg Wirksubstanz pro kg Körpergewicht, suspension by stomach tube or rumen injection, worms left in the gut counted 7-10 days after treatment vs untreated infected controls
Excerpt: 3.1. Versuch an mit Nematoden wie Haemonchus contortus und Trichostrongylus colubriformis infizierten Schafen
Der Wirkstoff wird in Form einer Suspension mit einer Magensonde oder durch Pansen-Injektion Schafen verabreicht, die vorher mit Nematoden wie Haemonchus contortus und Trichostrongylus colubriformis künstlich infiziert wurden. Pro Versuch resp. pro Dosis werden 1 bis 3 Tiere verwendet. Jedes Schaf wird mit nur einer einzigen Dosis behandelt.
Eine erste Evaluierung erfolgt dadurch, dass die Anzahl der vor und nach der Behandlung im Kot der Schafe ausgeschiedenen Wurmeier verglichen wird.
Sieben bis zehn Tage nach der Behandlung werden die Schafe getötet und seziert. Die Auswertung erfolgt durch Auszählung der nach der Behandlung im Darm zurückbleibenden Würmer. Gleichzeitig und gleichartig infizierte aber unbehandelte Schafe dienen als Kontrolle resp. Vergleich.
In diesem Test wird mit Verbindungen der Formeln I und la eine starke Reduzierung des Nematodenbefalls erzielt. So wird beispielsweise beim Einsatz von 20 mg Wirksubstanz pro kg Körpergewicht mit den nachfolgenden Verbindungen eine Reduzierung des Nematodenbefalls von ca. 90 % bewirkt: 1.1, 5.1 und 5.2. Dieses Ergebnis wird bei einzelnen Verbindungen auch noch mit weiter herabgesetzter Dosis, beispielsweise mit 10 mg Wirksubstanz pro kg Körpergewicht oder noch geringeren Mengen an Wirksubstanz, erreicht.

[2] = test system: Cestoden wie Moniezia benedeni; assay: Test on sheep infected with cestodes (worm count at necropsy); assay type: in vivo, Schafe; settings: single dose of less than 20 mg/kg Körpergewicht, suspension by stomach tube or rumen injection, worms left in the gut counted 7-10 days after treatment vs untreated infected controls
Excerpt: 3.2. Versuch an mit Cestoden wie Moniezia benedeni infizierten Schafen
Der Wirkstoff wird in Form einer Suspension mit einer Magensonde oder durch Pansen-Injektion Schafen verabreicht, die vorher mit Cestoden wie Moniezia benedeni artifiziell infiziert wurden. Pro Versuch resp. pro Dosis werden 3 Tiere verwendet. Jedes Schaf wird mit nur einer einzigen Dosis behandelt.
Sieben bis zehn Tage nach der Behandlung werden die Schafe getötet und seziert. Die Auswertung erfolgt durch Auszählung der nach der Behandlung im Darm zurückbleibenden Würmer. Gleichzeitig und gleichartig infizierte aber unbehandelte Schafe dienen als Kontrolle resp. Vergleich. In diesem Versuch bewirken Wirkstoffe aus den Tabellen, wie beispielsweise die Verbindungen Nr. 1.1, 5.1 und 5.2. bei Dosen von weniger als 20 mg/kg Körpergewicht eine ca. 90%ige Reduktion des Cestodenbefalls.

What does the source list for “1,3-Dimethyl-5-[4-(5-oder 7-Chlor-6-fluor-benzthiazol-2-yloxy)-phenylcarbamoyl]-4,6-(1 H,3H,5H)-pyrimidindion [Verbindung 5.2]”?
Reduzierung des Nematodenbefalls [1]: ca. 90%; Reduktion des Cestodenbefalls [2]: ca. 90%

For Cn1c[n+](C)c(=O)c(C(=O)Nc2ccc(Oc3nc4ccc(OC(F)(F)F)cc4s3)cc2)c1[O-] [Verbindung 1.1, 1,3-Dimethyl-5-[4-(6-trifluormethoxy-benzthiazol-2-yloxy)-phenylcarbamoyl]-4(6)-oxo-6-(4)-oxido-(1H,5H)-pyrimidiniumbetain], which “Reduzierung des Nematodenbefalls” value [1] is on record?
Its value is “ca. 90%”.

And the “Reduktion des Cestodenbefalls” value [2]?
The value was “ca. 90%”.

How did the “Reduzierung des Nematodenbefalls” value [1] turn out when CN1CN(C)C(=O)C(C(=O)Nc2ccc(Oc3nc4ccc(OC(F)(F)F)cc4s3)cc2)C1=O [Verbindung 5.1, 1,3-Dimethyl-5-[4-(6-trifluormethoxy-benzthiazol-2-yloxy)-phenylcarbamoyl]-4,6-(1 H,3H,5H)-pyrimidindion] was run?
The value was “ca. 90%”.

And the “Reduktion des Cestodenbefalls” value [2]?
The value was “ca. 90%”.
